Earlier results in article PMC4948595 (Journal of Medicinal Chemistry, 2016).

System: influenza endonuclease

O=c1[nH]cc(-c2ccc(-c3nnn[nH]3)cc2)cc1O [Parhi-6]
IC50: 0.368 ± 0.041 µM
